Patent US20210261527A1, “OGA INHIBITOR COMPOUNDS” (Janssen Pharmaceutica NV, priority 2018, published 2021)
Structures can show the parent of a compound that is named as a salt.

Legend:
[1] = target: T1, hOGA in HEK293 cells inducible for P301L mutant human Tau (isoform 2N4R) (Homo sapiens, UniProt O60502); experiment: OGA cellular assay (ICC detection of O-GlcNAcylated proteins); format: cell-based; details: 6 hours incubation; for Emax: maximum = Thiamet G at 200 uM; for EC50: O-GlcNAcylation intensity readout at 488 nm, read-out: Cellular hOGA, pEC50 (converted)
T1 construct: endogenous in cells; host or cells: HEK293 cells inducible for P301L mutant human Tau (isoform 2N4R)
T1 sequence (O60502 1-916): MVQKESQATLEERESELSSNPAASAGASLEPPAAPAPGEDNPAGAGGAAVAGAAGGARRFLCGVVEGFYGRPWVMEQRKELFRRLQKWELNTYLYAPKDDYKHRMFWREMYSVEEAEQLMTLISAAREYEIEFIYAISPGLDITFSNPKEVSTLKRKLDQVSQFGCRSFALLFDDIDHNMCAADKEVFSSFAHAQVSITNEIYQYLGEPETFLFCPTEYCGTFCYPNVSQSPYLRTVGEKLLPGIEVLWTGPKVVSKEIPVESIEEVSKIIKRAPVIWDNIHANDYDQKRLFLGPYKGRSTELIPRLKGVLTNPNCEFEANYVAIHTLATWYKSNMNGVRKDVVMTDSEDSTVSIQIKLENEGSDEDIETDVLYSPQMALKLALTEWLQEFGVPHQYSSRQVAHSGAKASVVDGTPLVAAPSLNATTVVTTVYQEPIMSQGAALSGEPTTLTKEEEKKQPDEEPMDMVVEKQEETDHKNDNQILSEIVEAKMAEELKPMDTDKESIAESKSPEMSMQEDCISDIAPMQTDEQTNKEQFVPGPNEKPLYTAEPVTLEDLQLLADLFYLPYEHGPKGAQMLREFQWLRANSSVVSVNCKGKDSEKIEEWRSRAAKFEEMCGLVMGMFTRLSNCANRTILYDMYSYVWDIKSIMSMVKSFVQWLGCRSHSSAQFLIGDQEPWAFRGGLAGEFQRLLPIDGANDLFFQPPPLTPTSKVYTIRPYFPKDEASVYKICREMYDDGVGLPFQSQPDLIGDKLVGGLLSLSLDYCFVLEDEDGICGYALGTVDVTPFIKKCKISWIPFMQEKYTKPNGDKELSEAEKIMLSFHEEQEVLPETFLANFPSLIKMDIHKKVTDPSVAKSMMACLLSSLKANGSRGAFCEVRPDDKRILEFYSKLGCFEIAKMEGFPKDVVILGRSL
Procedure: HEK293 cells inducible for P301L mutant human Tau (isoform 2N4R) were established at Janssen. Thiamet-G was used for both plate validation (high control) and as reference compound (reference EC50 assay validation). OGA inhibition is evaluated through the immunocytochemical (ICC) detection of O-GlcNAcylated proteins by the use of a monoclonal antibody (CTD110.6; Cell Signaling, #9875) detecting 0-GlcNAcylated residues as previously described (Dorfmueller et al. 2010 Chemistry & biology, 17:1250). Inhibition of OGA will result in an increase of O-GlcNAcylated protein levels resulting in an increased signal in the experiment. Cell nuclei are stained with Hoechst to give a cell culture quality control and a rough estimate of immediate compounds toxicity, if any. ICC pictures are imaged with a Perkin Elmer Opera Phenix plate microscope and quantified with the provided software Perkin Elmer Harmony 4.1.
Cells were propagated in DMEM high Glucose (Sigma, #D5796) following standard procedures. 2 days before the cell assay cells are split, counted and seeded in Poly-D-Lysine (PDL) coated 96-wells (Greiner, #655946) plate at a cell density of 12,000 cells per cm^2 (4,000 cells per well) in 100 μl of Assay Medium (Low Glucose medium is used to reduce basal levels of GlcNAcylation) (Park et al. 2014 The Journal of biological chemistry 289:13519). At the day of compound test medium from assay plates was removed and replenished with 90 μl of fresh Assay Medium. 10 μl of compounds at a 10fold final concentration were added to the wells. Plates were centrifuged shortly before incubation in the cell incubator for 6 hours. DMSO concentration was set to 0.2%. Medium is discarded by applying vacuum. For staining of cells medium was removed and cells washed once with 100 μl D-PBS (Sigma, #D8537). From next step onwards unless other stated assay volume was always 50 μl and incubation was performed without agitation and at room temperature. Cells were fixed in 50 μl of a 4% paraformaldehyde (PFA, Alpha aesar, #043368) PBS solution for 15 minutes at room temperature. […] Before analysis samples were washed 2 times manually for 5 minutes in ICC base buffer.
Imaging is performed using Perkin Elmer Phenix Opera using a water 20× objective and recording 9 fields per well. Intensity readout at 488 nm is used as a measure of O-GlcNAcylation level of total proteins in wells. To assess potential toxicity of compounds nuclei were counted using the Hoechst staining. IC50-values are calculated using parametric non-linear regression model fitting. As a maximum inhibition Thiamet G at a 200 uM concentration is present on each plate. In addition, a concentration response of Thiamet G is calculated on each plate.

[2] = target: T2, recombinant human Meningioma Expressed Antigen 5 (MGEA5), also referred to as O-GlcNAcase (OGA) (Homo sapiens, UniProt O60502); experiment: OGA biochemical assay (FM-GlcNAc hydrolysis, fluorescence); details: full length OGA 2 nM, FM-GlcNAc 100 uM, pH 7.2, 6 h at room temperature; for Emax: read-out: Enzymatic Emax (%); for IC50: read-out: Enzymatic hOGA, pIC50 (converted)
T2 construct: Full length OGA enzyme was purchased at OnGene (cat #TP322411); purchased OnGene (so in the source)
T2 sequence (O60502 1-916): T1 sequence (O60502 1-916)
Text: The assay is based on the inhibition of the hydrolysis of fluorescein mono-β-D-N-Acetyl-Glucosamine (FM-GlcNAc) (Mariappa et al. 2015, Biochem J 470:255) by the recombinant human Meningioma Expressed Antigen 5 (MGEA5), also referred to as O-GlcNAcase (OGA). The hydrolysis FM-GlcNAc (Marker Gene technologies, cat #M1485) results in the formation of β-D-N-glucosamineacetate and fluorescein. The fluorescence of the latter can be measured at excitation wavelength 485 nm and emission wavelength 538 nm. An increase in enzyme activity results in an increase in fluorescence signal. Full length OGA enzyme was purchased at OnGene (cat #TP322411). The enzyme was stored in 25 mM Tris.HCl, pH 7.3, 100 mM glycine, 10% glycerol at −20° C. Thiamet G and GlcNAcStatin were tested as reference compounds (Yuzwa et al. 2008 Nature Chemical Biology 4:483; Yuzwa et al. 2012 Nature Chemical Biology 8:393). The assay was performed in 200 mM Citrate/phosphate buffer supplemented with 0.005% Tween-20. 35.6 g Na2HPO4 2 H2O (Sigma, #C0759) were dissolved in 1 L water to obtain a 200 mM solution. 19.2 g citric acid (Merck, #1.06580) was dissolved in 1 L water to obtain a 100 mM solution. pH of the sodiumphosphate solution was adjusted with the citric acid solution to 7.2. The buffer to stop the reaction consists of a 500 mM Carbonate buffer, pH 11.0. 734 mg FM-GlcNAc were dissolved in 5.48 mL DMSO to obtain a 250 mM solution and was stored at −20° C. OGA was used at a 2 nM concentration and FM-GlcNAc at a 100 uM final concentration. Dilutions were prepared in assay buffer.
50 nl of a compound dissolved in DMSO was dispensed on Black Proxiplate™ 384 Plus Assay plates (Perkin Elmer, #6008269) and 3 μl fl-OGA enzyme mix added subsequently. Plates were pre-incubated for 60 min at room temperature and then 2 μl FM-GlcNAc substrate mix added. […] Plates were briefly centrifuged for 1 min at 1000 rpm and incubate at room temperature for 6 h. To stop the reaction 5 μl STOP buffer were added and plates centrifuge again 1 min at 1000 rpm. Fluorescence was quantified in the Thermo Scientific Fluoroskan Ascent or the PerkinElmer EnVision with excitation wavelength 485 nm and emission wavelength 538 nm.
For analysis a best-fit curve is fitted by a minimum sum of squares method. From this an IC50 value and Hill coefficient was obtained. High control (no inhibitor) and low control (saturating concentrations of standard inhibitor) were used to define the minimum and maximum values.

Row | SMILES | melting point | Emax [1] | Emax [2] | IC50 [2] | EC50 [1]
1 | Cc1cc(C[C@H]2CCCN(C(C)c3ccc4cccnc4c3)C2)cc(C)n1 (mixture of isomers) (as salt: HCl) [Compound 9] | 262.69 °C |  |  |  | 
2 | Cc1cc(C[C@H]2CCCN(C(C)c3cc4ncccc4cn3)C2)cc(C)n1 (mixture of isomers) [Compound 6] |  | 41.1% | 99.6% | 0.0479 µM | 
3 | Cc1cc(C[C@H]2CCCN(C(C)c3ccc4cccnc4n3)C2)cc(C)n1 (mixture of isomers) [Compound 7] |  | 71.1% | 101% | 0.0148 µM | 0.234 µM
4 | Cc1cc(C[C@H]2CCCN(C(C)c3ccc4nc(O)cnc4c3)C2)cc(C)n1 (mixture of isomers) [Compound 10] |  | 11.2% | 101% | 0.107 µM | > 1 µM
5 | Cc1cc(C[C@H]2CCCN([C@@H](C)c3ccc4ccc(C)nc4c3)C2)cc(C)n1 (single isomer, unassigned) [Compound 2] |  |  | 60.8% | 7.24 µM | 
6 | Cc1cc(C[C@H]2CCCN([C@H](C)c3ccc4ccc(C)nc4c3)C2)cc(C)n1 (single isomer, unassigned) [Compound 3] |  | 34.8% | 101% | 0.0537 µM | > 1 µM
7 | Cc1cc(C[C@H]2CCCN([C@@H](C)c3cnc4cccnc4c3)C2)cc(C)n1 (single isomer, unassigned) [Compound 4] |  | 50.5% | 102% | 0.0288 µM | 0.646 µM
8 | Cc1cc(C[C@H]2CCCN([C@H](C)c3cnc4cccnc4c3)C2)cc(C)n1 (single isomer, unassigned) [Compound 5] |  | 86.4% | 103% | 0.0055 µM | 0.162 µM
9 | Cc1cc(C[C@H]2CCCN(Cc3ccc4cccnc4c3)C2)cc(C)n1 [Compound 1] | 152.83 °C | 33% | 95.8% | 0.288 µM | > 1 µM
10 | Cc1cc(C[C@H]2CCCN(Cc3ccc4cccnc4n3)C2)cc(C)n1 [Compound 8] |  | 29.8% | 98.5% | 0.195 µM | > 1 µM
